Results as given in patent US8957098B2 (ALGIAX Pharmaceuticals GmbH, priority 2010, dated 2015).

Key:
[1] = tested on: severe spinal cord contusion injury in the rat; assay: Explorative rearing test after severe spinal cord contusion injury; assay type: in vivo; conditions: Example 1; 20 mg/kg/day by gavage for 7 days
Procedure: Thirteen week-old female Lewis rats (Charles River, Sulzfeld Germany) were housed under a 12:12 h dark/light regime and allowed free access to water and food. After one week of habituation the animals underwent general anesthesia with a mixture of isoflurane and air (induction: 5% isoflurane, maintenance: 2.2% isofluorane). A Th10 laminectomy was performed without rupturing the dura and a severe contusive SCI (25 gem NYU/MASCIS II impactor) {Gruner, 1992 #3} was induced. After suturing muscle and skin, a subcutaneous (s.c.) injection of 5 ml of Ringers Lactate was given. Bladders were emptied manually 2 times a day until spontaneous voiding returned (usually within 1 week). The lesion severity was verified by the impact velocity and contusion depth of the impactor rod. Animals with an impact velocity error >5% were excluded from further analysis. After injury, individual rats were randomly assigned into a treatment group. The following groups were used:
When placed in a Plexiglas cylinder (18 cm diameter×35.0 cm height), animals spontaneously rear and contact the walls with their forepaws. Numbers, duration and types of rears were analyzed during the 3-min recorded observation period in the cylinder (Himes et al., 2006; Shumsky et al., 2003). A mirror was placed at an angle behind the cylinder so that the forelimbs could be viewed at all times. The testing session was videotaped, and rearing behaviour was scored blindly at a later date.
Different types of rears of increasing heights were observed: • LEVEL 1: Crouch—Animals lifted both forepaws off the ground up to 10 cm; • LEVEL 2: Rear—Animals reared and extended the trunk with the hindlimbs flexed reaching a height between 10 and 15 cm; • LEVEL 3: Stand—Animals reared and extended the trunk with the hindlimbs extended reaching a height over 15 cm.
Occasionally an animal progressed through several types of rears before touching down, in which case the time the animal spend in each rearing height was measured by counting the single video frames. […]

[2] = tested on: severe spinal cord contusion injury in the rat; assay: BBB open field locomotor rating scale after severe spinal cord contusion injury; assay type: in vivo; conditions: Example 2; 20 mg/kg/day by gavage for 7 days; effect distinct from DPO 7 to DPO 63 (ANOVA-RM p=0.002); vehicle 8.3
Procedure: The BBB score is scaled from 0 to 21 points, a BBB score of 0 represents a complete paralysis of the hind limbs and a BBB score of 21 represents normal locomotion. […]
The BBB locomotor rating scale was used according to the present disclosure to assess general locomotor performance. The score was assessed before injury and at 1, 3, 5, 7, 14, 21, 35, 42, 49, 56 and 63 days post operation (dpo) by 2 blinded observers.

SMILES | exploring time of healthy control animals at LEVEL 3 (>15 cm) compared with treated animals [1] | rearing attempts (time and height reached by forepaws) vs vehicle control animals [1] | significantly less time in LEVEL 2 (10-15 cm) when compared to healthy control animals [1] | BBB score at steady state [2]
Cc1oncc1C(=O)Nc1ccc(C(F)(F)F)cc1 [Leflunomide, N-(4-trifluoromethylphenyl)-5-methylisoxazol-4-carboxamide] | significantly longer | longer in time and that the forepaws reached higher levels | this is not the case | –
Cc1cc(NC(=O)/C(C#N)=C(\O)C2CC2)ccc1C(F)(F)F [HR325, 1(3-methyl-4-trifluoromethylphenyl-carbamoyl)-2-cyclopropyl-2oxo-propionitrile] | – | – | – | around 10
